Laboratory results published in patent US20240358671A1, “COMPOSITIONS AND METHODS TO TREAT SKIN DISORDERS” (THE TRUSTEES OF INDIANA UNIVERSITY, priority 2021, published 2024).
Entries after “also recorded” stand apart in the source; their conditions may differ.

Assays:
[1] = system: PPARδ; assay: PPARδ gene expression in S-1-P treated human keratinocytes; assay type: cell-based; details: human keratinocytes treated with S-1-P, standard culture conditions
Protocol: Spingosine-1-phosphate methylates PPARδ promoter. Cutaneous ceramide is degraded to sphingosine by bacterial ceramidase. Sphingosine is phosphorylated to sphingosine-1 phosphate (S-1-P) which is a bioactive lipid and can epigenetically downregulate gene regulation. Thus, a plausible role of S-1-P in regulating PPARδ in our experimental systems was tested. In the porcine pre-clinical model of wound biofilm infection elevated levels of S-1-P was detected following PAwt, but not PAΔCer, infection. […] Under standard culture conditions when human keratinocytes were treated with the bioactive sphingolipid S-1-P, gene expression of PPARδ was blunted. To determine whether such downregulation of PPARδ was epigenetically regulated, CpG methylation of the PPARδ promoter was studied.

[2] = system: PPARδ promoter; assay: Bisulfite sequencing of PPARδ promoter (CpG methylation); assay type: cell-based, human; details: HaCaT keratinocytes; S-1-P 5 μM, 48 hours
Protocol: The PCR products were gel extracted (GenElute Gel Extraction Kit, Sigma, cat #NA1111-1KT) and Sanger sequencing was done using ABI 3730 Genetic Analyzer. Analysis was done using Sequencher 5.4.5 (Gene Codes Corporation, MI). Results were confirmed by cloning the purified DNA into pGEM-T Easy Vector System II (Promega, cat #A1380), followed by sequencing.
Bisulfite conversion of DNA from HaCaT keratinocytes were transfected with Sphingosine-1-phosphate (5 μM, 48 hours) was performed using the Cells-to-CpG Bisulfite Conversion Kit (Thermo Fisher Scientific, part number: 4445555), as per manufacturer's protocol. The cells were lysed, and DNA was denatured using the denaturation reagent in a PCR tube at 50° C. for 10 min. Unmethylated cytosines were converted to uracil in the denatured DNA samples via treatment with conversion buffer containing bisulfite in a PCR reaction under following conditions: (1) 65° C. for 30 min, (2) 95° C. for 1.5 min, (3) 65° C. for 30 min, (4) 95° C. for 1.5 min, (5) 65° C. for 30 min, and (6) 4° C. up to 4 hr. This was followed by the removal of salts and desulfonation of the converted DNA in a binding column, a series of washing steps, and then elution of DNA. The converted DNA was stored at […] until further used.

[3] = system: DNMT3B; assay: DNMT3B activity assay; assay type: cell-based; details: human keratinocytes; 5 μmol S-1-P, 48 h
Protocol: Human keratinocytes cells were treated with 5 μmol of Sphingosine-1-phosphate (Avanti) for 48 h. Cells were collected and DNMT3B activity was measured using EpiQuik DNMT3B Activity/Inhibitor Screening Assay Core Kit (EPIGENTEK) according to manufacturer's instructions and using recombinant DNMT3B protein, (ACTIVE MOTIF) as a positive control for the assay.

[4] = system: DNA methyl transferases; assay: DNA methyl transferase expression in S-1-P treated HK; assay type: cell-based, human
From the text: (§1) FIGS. 11A-11O illustrate additional experimental results. FIG. 11A: Vector map of PPARδ promoter luciferase reporter. FIGS. 11B-11C: PPARδ drives CerS3 expression. CerS3 expression in human keratinocytes (HK) treated with PPARδ agonist (GW501516, 1 μmol/ml) or antagonist (GSK0660, 1 μmol/ml) as measured by qPCR. Data presented as mean±SEM (n=5). FIGS. 11D-11F: Upregulation of DNA methyl transferases in S-1-P treated HK. Data presented as mean±SEM (n=8). FIGS. 11G-11J: Induction of histone deacetylases in S-1P treated HK. Data presented as mean±SEM (n=8). FIGS. 11K-11N) Other histone deacetylases in S-1P treated HK. […] Data presented as mean±SEM, (n=8). FIG. 11O: miR-106b expression in HK treated with S-1-P (5 μmol/ml). Data presented as mean±SEM (n=8).

[5] = system: histone deacetylases; assay: Histone deacetylase expression in S-1-P treated HK; assay type: cell-based, human
From the text: as §1

[6] = system: miR-106b; assay: miR-106b expression in HK treated with S-1-P; assay type: cell-based, human; details: HK treated with S-1-P 5 μmol/ml
From the text: as §1

## CCCCCCCCCCCCC/C=C/[C@@H](O)[C@@H](N)COP(=O)(O)O [S-1-P, sphingosine-1 phosphate]
[1]
  gene expression of PPARδ: blunted; also recorded: epigenetically silenced
[2]
  PPARδ promoter methylation: caused promoter methylation
[3]
  catalytic activity of DNA methyl transferase 3B (DNMT3B): augmented catalytic activity
[4]
  DNA methyl transferases expression (FIGS. 11D-11F): Upregulation
[5]
  histone deacetylases expression (FIGS. 11G-11J): Induction
  other histone deacetylases expression (FIGS. 11K-11N): No significant changes
[6]
  miR-106b expression: Induction
